Assay results from patent publication US20240368163A1, “COMPOUNDS AND METHODS FOR MODULATING SPLICING” (REMIX THERAPEUTICS INC., priority 2021, published 2024).

What was measured:
Assay type in all cases: cell-based, human
[1] = tested on: MYB; assay: HiBiT protein abundance assay, MYB; conditions: Homo sapiens, K562, 24 h, modified K562 cells
Method: (§1) Compounds described herein were used to screen for effects on quantitative protein abundance using a HiBit assay system (Promega). Quantitative protein abundance was determined by measuring the protein levels of HiBit-tagged protein targets expressed in cell culture via luminescence using the Nano-Glo HiBiT Lytic Detection System, which uses a split complementation assay format to reconstitute NanoBiT enzyme to generate a luminescent signal. A protein abundance assay was developed such that endogenous protein targets could be modified with the HiBiT peptide tag and their abundance could be assessed after compound treatment. Briefly, K562 cell lines containing a HiBiT-modification were treated with various compounds described herein (e.g., compounds of Formulas (I), (II), or (III)). After treatment for 24 hours, the protein abundance of a specific target was determined by measuring luminescence.
(§2) Cells were maintained in IMIDM with 10% FBS. Before the assay, cells were diluted with […] growth media (IMIDM+[…] media) and were seeded in a 384-well plate at a density of 10000 cells/well (for each cell line listed in Table 12). Each compound was prepared as a 10-point 3-fold serial dilution in DMSO with the top dose at a final concentration of 10 μM in the well. Unmodified K562 cells were added at the previously specified density with DMSO to serve as an assay baseline and positive control (PC) and DMSO only with the respective modified cell lines was added to the negative control (NC) columns. Final DMSO concentration was kept at or below 0.25%. Treated cell plates were placed in an incubator at 37° C. with 5% CO2 for 24 hours. After 24 hours, 25 μL of Complete HiBit Lytic reagent was added to each well at room temperature (e.g. one plate requiring 10 mL Lytic Buffer, 100 μL LgBiT Protein, 200 μL Lytic Substrate), shaken for 5 minutes at 600 RPM, then left to sit for 10 minutes for signal to stabilize before reading on a Spark Cyto plate reader (Tecan) with a 500 ms measurement time.
(§3) To determine compound effects on protein abundance of each target in Table 12, the percent response for each respective cell line was calculated at each compound concentration as follows:
(§4) For the normalized response at each concentration, a four-parameter logistical regression was fit to the data and the response was interpolated at the 50% value to determine a concentration for protein abundance at 50% (IC50) the untreated control.

[2] = tested on: HTT; assay: HiBiT protein abundance assay, HTT; conditions: modified K562 cells
Method: as §1, §2, §3, §4

[3] = tested on: Target C; assay: HiBiT protein abundance assay, Target C; conditions: Homo sapiens, K562, 24 h, modified K562 cells
Method: • Promega Nano-Glo HiBiT Lytic Detection System (cat #N3030) • Coming 384-well TC-treated microplates (cat #3570) • Synthego Engineered Cells Knock-In Clones
as §2, §3, §4

[4] = tested on: MYB; assay: Splicing RT-qPCR assay, MYB mRNA canonical junction (CJ) and alternative junction (AJ); conditions: for AC50: increase in AJ mRNA
Method: Compounds described herein were used to modulate RNA transcript abundance in cells. The expression of a target mRNA was measured by detecting the formation of an exon-exon junction in the canonical transcript (CJ). A compound mediated exon-inclusion event was detected by observing an increase in formation of a new junction with an alternative exon (AJ). Real-time qPCR assays were used to detect these splicing switches and interrogate the potency of various compounds towards different target genes. A high-throughput real time quantitative PCR (RT-qPCR) assay was developed to measure these two isoforms of the mRNA (CJ and AJ) for exemplary genes, such as HTT, SMN2, and MYB, together with a control housekeeping gene, GAPDH or GUSB or PPIA, used for normalization. Briefly, the A673 or K562 cell line was treated with various compounds described herein (e.g., compounds of Formula (I)). After treatment, the levels of the HTT, MYB, or SMN2 mRNA targets were determined from each sample of cell lysate by cDNA synthesis followed by qPCR.
The A673 cell line was cultured in DMEM with 10% FBS. Cells were diluted with full growth media and plated in a 96-well plate (15,000 cells in 100 ul media per well). The plate was incubated at 37° C. with 5% CO2 for 24 hours to allow cells to adhere. An 11-point 3-fold serial dilution of the compounds was made in DMSO then diluted in media in an intermediate plate. Compounds were transferred from the intermediate plate to the cell plate with the top dose at a final concentration of 10 uM in the well. Final DMSO concentration was kept at or below 0.25%. The cell plate was returned to the incubator at 37° C. with 5% CO2 for an additional 24 hours.
The K562 cell line was cultured in IMDM with 10% FBS. For K562, cells were diluted with full growth media and plated in either a 96-well plate (50,000 cells in 50 uL media per well) or a 384-well plate (8,000-40,000 cells in 45 uL media per well). An 11-point 3-fold serial dilution of the compounds were made in DMSO then diluted in media in an intermediate plate. Compound was transferred from the intermediate plate to the cell plate with the top dose at a final concentration of 10 uM in the well. Final DMSO concentration was kept at or below 0.25%. Final volume was 100 uL for 96-well plate and 50 uL for 384-well plate. The cell plate was then placed in an incubator at 37° C. with 5% CO2 for 24 hours.
The cells were then gently washed with 50 uL-100 uL cold PBS before proceeding to addition of lysis buffer. 30 uL-50 μL of room temperature lysis buffer with DNAse I (and optionally RNAsin) was added to each well. Cells were shaken/mixed thoroughly at room temperature for 5-10 minutes for lysis to take place and then 3 uL-5 μL of room temperature stop solution was added and wells were shaken/mixed again. After 2-5 minutes, the cell lysate plate was transferred to ice for RT-qPCR reaction setup. The lysates could also be frozen at −80° C. for later use.
In some cases, a direct lysis buffer was used. An appropriate volume of 3× lysis buffer (10 mM Tris, 150 mM NaCl, 1.5%-2.5% Igepal and 0.1-1 U/uL RNAsin, pH 7.4) was directly added to either K562 or A673 cells in media and mixed by pipetting 3 times. The plates were then incubated at room temperature with shaking/rocking for 20-50 minutes to allow for lysis to take place. After this time, the cell lysate plate was transferred to ice to set up for the RT-qPCR reactions. The lysates could also be frozen at −80° C. for later use.
To set up 10 uL RT-qPCR reactions, cell lysates were transferred to 384-well qPCR plates containing the master mix according to the table below. The plates were sealed, gently vortexed, and spun down before the run. The volumes were adjusted accordingly in some instances where the reaction was carried in 20 μL. The table below summarizes the components of the RT-qPCR reactions:
The RT-qPCR reaction was performed using a QuantStudio (ThermoFisher) under the following fast cycling conditions. […]

[5] = Homo sapiens, K562, 24 h, Table 13A
[6] = Homo sapiens, 24 h, decrease in CJ mRNA, A673 or K562 cells, 24 hours treatment, RT-qPCR, read-out: MYB CJ IC50
[7] = Homo sapiens, 24 h, A673 or K562 cells, 24 hours treatment, RT-qPCR
[8] = Homo sapiens, RT-qPCR panel, canonical junction mRNA, compound concentration having 50% response in CJ decrease, read-out: MYB IC50 (decrease in CJ mRNA levels)
[9] = Homo sapiens, K562, 24 h, Table 13B

| Compound | IC50 ([1]; Table 13A) | IC50 [2, 5] | IC50 ([3]; Table 13A) | further results |
| --- | --- | --- | --- | --- |
| C[C@@H]1C[C@H](N(C)c2ccc(-c3ccc(-c4cn[nH]c4)c4cn[nH]c34)nn2)CCN1 [Compound 101] | 1 to 10 µM | 1 to 10 µM | 1 to 10 µM |  |
| C[C@@H]1C[C@H](N(C)c2ccc(-c3ccc(-n4cccn4)c4cn[nH]c34)nn2)CCN1 [Compound 103] | 1 to 10 µM | 1 to 10 µM | 1 to 10 µM |  |
| C[C@@H]1C[C@@H](N(C)c2ccc(-c3ccc(-c4cn[nH]c4)c4cc[nH]c34)nn2)CCN1 [Compound 107] | 1 to 10 µM | 1 to 10 µM | 1 to 10 µM |  |
| C[C@H]1C[C@@H](N(C)c2ccc(-c3ccc(-c4cn[nH]c4)c4cc[nH]c34)nn2)CCN1 [Compound 108] | > 10 µM | > 10 µM | > 10 µM | IC50 [4, 6]: > 10 µM; AC50 [4, 7]: > 10 µM; IC50 [4, 8]: > 10 µM |
| C[C@@H]1C[C@@H](N(C)c2ccc(-c3ccc(-n4cccn4)c4cc[nH]c34)nn2)CCN1 [Compound 110] | 1 to 10 µM | 1 to 10 µM | 1 to 10 µM |  |
| CN(c1ccc(-c2ccc(-c3cn[nH]c3)c3cc[nH]c23)nn1)[C@@H]1C[C@H]2CC[C@@H](C1)N2 [Compound 112] | 1 to 10 µM | 1 to 10 µM | 1 to 10 µM | IC50 [4, 6]: 1 to 10 µM; AC50 [4, 7]: 1 to 10 µM; IC50 [4, 8]: 1 to 10 µM |
| CN(c1ccc(-c2ccc(-c3cn[nH]c3)c3c2NC(=O)C3)nn1)[C@@H]1C[C@H]2CC[C@@H](C1)N2 [Compound 123] | > 10 µM | > 10 µM | > 10 µM |  |
| CC1(C)CC(Oc2ccc(-c3ccc(-n4cccn4)c4cn[nH]c34)nn2)CC(C)(C)N1 [Compound 151] | 0.1 to 1 µM | 0.1 to 1 µM | 0.1 to 1 µM |  |
| c1cnn(-c2ccc(-c3ccc(O[C@@H]4C[C@H]5CC[C@@H](C4)N5)nn3)c3[nH]ncc23)c1 [Compound 152] | 0.1 to 1 µM | < 0.1 µM | < 0.1 µM |  |
| CN(c1ccc(-c2ccc(-c3cn[nH]c3)c3nc[nH]c23)nn1)[C@@H]1C[C@H]2CC[C@@H](C1)N2 [Compound 163] | > 10 µM | > 10 µM | > 10 µM |  |
| CN(c1ccc(-c2ccc(-c3cn(C)nn3)c3cn[nH]c23)nn1)[C@@H]1C[C@H]2CC[C@@H](C1)N2 [Compound 165] | 1 to 10 µM | 1 to 10 µM | 1 to 10 µM |  |
| c1nc2c(-c3cn[nH]c3)ccc(-c3ccc(O[C@@H]4C[C@H]5CCC[C@@H](C4)N5)nn3)c2s1 [Compound 209] | 0.1 to 1 µM | < 0.1 µM | < 0.1 µM |  |
| c1nc2c(-c3cn[nH]c3)ccc(-c3ccc(N4C[C@H]5CNC[C@H]5C4)nn3)c2s1 [Compound 282] | 1 to 10 µM | 1 to 10 µM | > 10 µM |  |
| [2H]C([2H])([2H])N(c1ccc(-c2ccc(-c3cn[nH]c3)c3cn[nH]c23)nn1)[C@@H]1C[C@H]2CC[C@@H](C1)N2 [Compound 299] | < 0.1 µM | < 0.1 µM | < 0.1 µM |  |
| Cc1cc(-c2ccc(-c3ccc(N(C)[C@@H]4C[C@H]5CC[C@@H](C4)N5)nn3)c3[nH]ncc23)cnn1 [Compound 383, (exo)-N-methyl-N-{6-[4-(6-methylpyridazin-4-yl)-1H-indazol-7-yl]pyridazin-3-yl}-8-azabicyclo[3.2.1]octan-3-amine] | 1 to 10 µM | 1 to 10 µM | 1 to 10 µM |  |
| c1nc2c(-c3cn[nH]c3)ccc(-c3ccc(N(C4CC4)[C@@H]4C[C@H]5CC[C@@H](C4)N5)nn3)c2s1 [Compound 389, (exo)-N-cyclopropyl-N-{6-[4-(1H-pyrazol-4-yl)-1,3-benzothiazol-7-yl]pyridazin-3-yl}-8-azabicyclo [3.2.1] octan-3-amine] | 0.1 to 1 µM | 0.1 to 1 µM | < 0.1 µM |  |
| c1nc2c(-c3cn[nH]c3)ccc(-c3cnc(N4CCN[C@H](C5CC5)C4)nn3)c2s1 [Compound 553] |  |  |  | IC50 ([4]; RT-qPCR panel, canonical junction mRNA, compound concentration having 50% response in CJ decrease, read-out: MYB IC50 (decrease in CJ mRNA levels)): 1 to 10 µM; IC50 ([2]; Table 13A, 24 hours): 1 to 10 µM |
| CN(c1ccc(-c2ccc(-c3cn[nH]c3)c(=O)[nH]2)nn1)[C@@H]1C[C@H]2CC[C@@H](C1)N2 [Compound 904] |  |  |  | IC50 ([1]; Table 13B): > 10 µM; IC50 [2, 9]: > 10 µM; IC50 ([3]; Table 13B): > 10 µM |
| CN(c1ccc(-c2ccc(-n3cccn3)c(=O)[nH]2)nn1)[C@@H]1C[C@H]2CC[C@@H](C1)N2 [Compound 905] |  |  |  | IC50 ([1]; Table 13B): 1 to 10 µM; IC50 [2, 9]: 0.1 to 1 µM; IC50 ([3]; Table 13B): 0.1 to 1 µM |
